Results reported in patent US20240034733A1, “KRAS G12D INHIBITORS” (Mirati Therapeutics, Inc., priority 2020, published 2024).

Assays:
[1] = target: T1, KRas G12D (Homo sapiens, UniProt P01116, G12D); experiment: KRas G12D Surface Plasmon Resonance (SPR) Binding Assay; settings: Biacore T200, 20° C., 1:1 binding model, read-out: KD (nM), Determination of KRas G12D KD
T1 construct: Avidin-tag (so in the source)
Experimental: This Example illustrates that exemplary compounds of the present invention bind to KRas G12D as measured by surface plasmon resonance (SPR).
Briefly, 1 L of 1.05×HBS-Mg buffer (262.5 mM BioUltra Hepes, pH 7.5, 157.5 mM NaCl, 105 mM MgCl2, 0.525 mM TCEP, 0.0305% Brij-35) was prepared and filter sterilized using a 0.22 μm bottle top filter. Approximately 50 mL of 1.05×HBS-Mg buffer was removed and saved for future dilutions. A 50 mL aliquot of DMSO (Sigma Aldrich DMSO Lot. #SHBK2079) was added and continued to stir for 10 minutes, creating the final 1.0×HBS-Mg buffer (250 mM BioUltra Hepes pH 7.5, 150 mM NaCl, 100 mM MgCl2, 0.5 mM TCEP, 0.03% Brij-35).
Biacore T200 instrument was primed using 1.0×HBS-Mg buffer before docking a GE Streptavidin (SA) chip and then primed two additional times prior to beginning the immobilization step. All immobilized protein mixtures were created using 3-5 mg/mL Biotinylated Avidin-tagged KRAS protein using the following immobilization settings: SA chip type, 1 flow cells per cycle, 720 second contact time, and 5 μL/min flow rate. Normalization of the detector was also performed during the immobilization step using the GE BiaNormalize solution.
All compounds were diluted to 10 mM in 100% DMSO prior to being diluted 20× in 1.05× buffer. Another 10× dilution was created using 1.0× buffer prior to performing a series of 3×dilutions to create a compound concentration curve using the following assay settings: 20° C. analysis temperature, General Settings=10 Hz data collection rate and multi-detection; Assay Steps=all set to LMW kinetics; Cycle Types=LMW kinetics (60 s contact time, 120 s dissociation time, 100 μL/min flow rate, extra wash after injection with 50% DMSO, flow path 1, 2, 3, 4); Flow path detection=2−1, 4−3). Data evaluation was performed using the Biacore T200 Evaluation software and data fit to 1:1 binding model.

[2] = target: T2, GDP-loaded recombinant human KRAS G12D (Homo sapiens, UniProt P01116, G12D); experiment: KRas G12D Binding Assay (TR-FRET displacement of Cy5 labelled tracer); settings: 60 minute incubation at 22° C.
T2 construct: corresponding to amino acids 1:169, produced at Array BioPharma; biotin (biotinylated); made in house
Experimental: This Example illustrates that exemplary compounds of the present invention bind to KRas G12D and are capable of displacing a labeled tracer ligand occupying the KRas G12D binding site.
The ability of a compound to bind to KRAS G12D was measured using a TR-FRET displacement assay. Biotinylated GDP-loaded recombinant human KRAS G12D (corresponding to amino acids 1:169, produced at Array BioPharma) was incubated with a custom-made Cy5 labelled tracer, europium labelled streptavidin and compound (2% DMSO final) in buffer (50 mM HEPES [pH 7.5], 5 mM MgCl2, 0.005% Tween-20 & 1 mM DTT). After a 60 minute incubation at 22° C., the reaction was measured using a PerkinElmer EnVision multimode plate reader via TR-FRET dual wavelength detection, and the percent of control (POC) calculated using a ratiometric emission factor. […] The POC values were fit to a 4-parameter logistic curve and the IC50 value was determined as the concentration where the curve crosses 50 POC.

[3] = test system: KRas G12D-mediated phosphorylation of ERK; experiment: Inhibition of KRas G12D-mediated phosphorylation of ERK in AGS cells; type: cell-based; settings: Homo sapiens; AGS cells expressing G12D, 3 hours, phospho-ERK normalized to GAPDH
Experimental: AGS cells (ATCC CRL-1739) expressing G12D were grown in DMEM medium supplemented with 10% fetal bovine serum, 10 mM HEPES, and Penicillin/Streptomycin. Cells were plated in tissue culture treated 96 well plates at a density of 40,000 cells/well and allowed to attach for 12-14 hours. Diluted compounds were then added in a final concentration of 0.5% DMSO. After 3 hours, the medium was removed, 150 μl of 4.0% formaldehyde was added and the plates incubated at room temperature for 20 minutes. The plates were washed with PBS, and permeabilized with 150p of ice cold 100% methanol for 10 minutes. Non-specific antibody binding to the plates was blocked using 100 μL Licor blocking buffer (Li-Cor Biotechnology, Lincoln NE) for 1 hour at room temperature.
The amount of phosho-ERK was determined using an antibody specific for the phosphorylated form of ERK and compared to the amount of GAPDH. Primary antibodies used for the detection were added as follows: Phospho-ERK (Cell Signaling cs-9101) diluted 1:500 and GAPDH (Millipore MAB374) diluted 1:5000 in Licor block+0.05% Tween 20. The plates were incubated for 2 hours at room temperature. The plates were washed with PBS+0.05% Tween 20.
Secondary antibodies used to visualize primary antibodies were added as follows: Anti-rabbit-680 diluted 1:1000 and Anti-mouse-800 diluted 1:1000 both in Licor block+0.05% Tween20, and were incubated for 1 hour at room temperature. The plates were washed with PBS +0.05% Tween 20. A 100 μl aliquot of PBS was added to each well and the plates were read on a Li-Cor Odyssey CLX plate reader phospho-ERK (Thr202/Tyr204) signal was normalized to the GAPDH signal for each well and percent of DMSO control values were calculated. IC50 values were generated using a 4-parameter fit of the dose response curve

T1 sequence (P01116 1-188 isoform P01116-2 G12D): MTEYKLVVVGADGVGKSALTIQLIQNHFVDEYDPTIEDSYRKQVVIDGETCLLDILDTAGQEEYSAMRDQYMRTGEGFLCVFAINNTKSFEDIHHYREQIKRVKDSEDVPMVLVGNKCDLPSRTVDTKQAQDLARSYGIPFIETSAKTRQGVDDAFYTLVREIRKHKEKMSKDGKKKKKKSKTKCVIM
T2 sequence (P01116 1-169 isoform P01116-2 G12D): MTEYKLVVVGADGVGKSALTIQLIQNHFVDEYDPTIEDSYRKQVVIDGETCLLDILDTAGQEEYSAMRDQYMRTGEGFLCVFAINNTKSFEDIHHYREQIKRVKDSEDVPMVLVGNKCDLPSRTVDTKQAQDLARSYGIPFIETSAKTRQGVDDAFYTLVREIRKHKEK

| SMILES | Kd [1] [nM] | IC50 [2] [nM] | IC50 [3] [nM] |
| --- | --- | --- | --- |
| CN1CCC[C@H]1COc1nc(N2C[C@H]3CC[C@@H](C2)N3)c2cc(Cl)c(-c3cc(O)cc4ccccc34)c(F)c2n1 [Example 7, 4-(4-((1R,5S)-3,8-diazabicyclo[3.2.1]octan-3-yl)-6-chloro-8-fluoro-2-(((S)-1-methylpyrrolidin-2-yl)methoxy)quinazolin-7-yl)naphthalen-2-ol] | 9 | 11.2 | 1420 |
| CN1CCC[C@H]1COc1nc(N2CC3CCC2CN3)c2cc(Cl)c(-c3cc(O)cc4ccccc34)c(F)c2n1 (stereo partly drawn) [Example 11, 4-((7R)-4-(2,5-diazabicyclo[2.2.2]octan-2-yl)-6-chloro-8-fluoro-2-(((S)-1-methylpyrrolidin-2-yl)methoxy)quinazolin-7-yl)naphthalen-2-ol] | 16 | 10.4 | 2840 |
| CN1C[C@H](F)C[C@H]1COc1nc(N2C[C@H]3CC[C@@H](C2)N3)c2ccc(-c3cc(O)cc4ccccc34)c(F)c2n1 [Example 29, 4-(4-((1R,5S)-3,8-diazabicyclo[3.2.1]octan-3-yl)-8-fluoro-2-(((2S,4R)-4-fluoro-1-methylpyrrolidin-2-yl)methoxy)quinazolin-7-yl)naphthalen-2-ol] | 5 | 1.8 | 779 |
| CN1CCC[C@H]1COc1nc(N2C[C@H]3CC[C@@H](C2)N3)c2ccc(-c3cc(O)cc4ccccc34)c(F)c2n1 [Example 8, 4-(4-((1R,5S)-3,8-diazabicyclo[3.2.1]octan-3-yl)-8-fluoro-2-(((S)-1-methylpyrrolidin-2-yl)methoxy)quinazolin-7-yl)naphthalen-2-ol] | 3 | 4.3 | 271 |
| CN1CCC[C@H]1COc1nc(N2C[C@H]3CC[C@@H]2CN3)c2cnc(-c3cc(O)cc4ccccc34)c(F)c2n1 [Example 15, 4-(4-((1R,4R)-2,5-diazabicyclo[2.2.2]octan-2-yl)-8-fluoro-2-(((S)-1-methylpyrrolidin-2-yl)methoxy)pyrido[4,3-d]pyrimidin-7-yl)naphthalen-2-ol] | 93 |  | 7120 |
| CN1CCC[C@H]1COc1nc2c(c(N3CC4CCC3CN4)n1)CCN(c1cc(O)cc3ccccc13)C2 (stereo partly drawn) [Example 16, 4-(4-(2,5-diazabicyclo[2.2.2]octan-2-yl)-2-(((S)-1-methylpyrrolidin-2-yl)methoxy)-5,8-dihydropyrido[3,4-d]pyrimidin-7(6H)-yl)naphthalen-2-ol] | 300 | 152 | 5950 |
| Cc1cc2[nH]ncc2c(-c2ccc3c(N4C[C@H]5CC[C@@H](C4)N5)nc(OC[C@@H]4CCCN4C)nc3c2F)c1C [Example 30, 4-((1R,5S)-3,8-diazabicyclo[3.2.1]octan-3-yl)-7-(5,6-dimethyl-1H-indazol-4-yl)-8-fluoro-2-(((S)-1-methylpyrrolidin-2-yl)methoxy)quinazoline] | 152 | 57 | 5090 |
| CN1CC(F)(F)C[C@H]1COc1nc(N2C[C@H]3CC[C@@H](C2)N3)c2ccc(-c3cc(O)cc4ccccc34)c(F)c2n1 [Example 31, 4-(4-((1R,5S)-3,8-diazabicyclo[3.2.1]octan-3-yl)-2-(((S)-4,4-difluoro-1-methylpyrrolidin-2-yl)methoxy)-8-fluoroquinazolin-7-yl)naphthalen-2-ol] | 121 | 297 | 8500 |
| CN1CCC[C@H]1COc1nc(N2CC3CCC2CN3)c2cnc(-c3cc(O)cc4ccccc34)c(F)c2n1 (stereo partly drawn) [Example 14, 4-(4-(2,5-diazabicyclo[2.2.2]octan-2-yl)-8-fluoro-2-(((S)-1-methylpyrrolidin-2-yl)methoxy)pyrido[4,3-d]pyrimidin-7-yl)naphthalen-2-ol] | 36 | 30.8 | 8610 |
| CN1CCC[C@H]1COc1nc(N2C[C@H]3CC[C@@H](C2)N3)c2ccc(-c3cccc4ccc(F)cc34)c(F)c2n1 [Example 13, 4-((1R,5S)-3,8-diazabicyclo[3.2.1]octan-3-yl)-8-fluoro-7-(7-fluoronaphthalen-1-yl)-2-(((S)-1-methylpyrrolidin-2-yl)methoxy)quinazoline] | 78 | 61.9 | 5560 |
| CN1CCC[C@H]1COc1nc(N2CCNC3(CC3)C2)c2ccc(-c3cc(O)cc4ccccc34)c(F)c2n1 [Example 12, (S)-4-(8-fluoro-2-((1-methylpyrrolidin-2-yl)methoxy)-4-(4,7-diazaspiro[2.5]octan-7-yl)quinazolin-7-yl)naphthalen-2-ol] | 110 |  | 5560 |
| CN1CCC[C@H]1COc1nc(N2C[C@H]3CC[C@@H](C2)N3)c2ccc(-c3cc(O)cc4ccccc34)cc2n1 [Example 10, 4-(4-((1R,5S)-3,8-diazabicyclo[3.2.1]octan-3-yl)-2-(((S)-1-methylpyrrolidin-2-yl)methoxy)quinazolin-7-yl)naphthalen-2-ol] | 19 | 22.9 | 5660 |
| Fc1c(-c2cccc3cccc(Cl)c23)ccc2c(N3C[C@H]4CC[C@@H](C3)N4)nc(OCC34CCCN3CCC4)nc12 [Example 2, 4-((1R,5S)-3,8-diazabicyclo[3.2.1]octan-3-yl)-7-(8-chloronaphthalen-1-yl)-8-fluoro-2-((tetrahydro-1H-pyrrolizin-7a(5H)-yl)methoxy)quinazoline] | 8 | 6.1 | 4540 |
